Here are results for 1 molecule from patent US8551937B2, “Peptide having an extending action for half-life of object peptide in plasma” (priority 2008, dated 2013).

Read-outs that look alike come from different tables or passages of the source.

The nature of data set [1]: CNP immunoreactivity concentration in plasma after administration to rats (competitive RIA), pharmacokinetic parameters (Example 2). To be noted: for half-life: read-out: T½. The format is in vivo, rat. Here is the method:
Pharmacokinetic parameters were calculated from the resulting changes in immunoreactivity concentrations in plasma. At that time, WinNonlin Professional Ver. 4.0.1 (manufactured by Pharsight Corporation, U.S.A.) was used as the analytical software. Method for the calculation of each parameter is mentioned as follows.
Concentration at time 0 (C0; extrapolated value, ng/mL), area under the curve for concentration in plasma vs. time (AUC; ng.min/mL) and quenching half-life (T½; minute(s)) were calculated as follows. C0 was calculated as a value at time by means of extrapolation from the changes in immunoreactivity concentration in plasma at each blood collection period. AUC was calculated by a trapezoidal method using the immunoreactivity concentrations in plasma at all measuring points (t) and an extrapolated value until the infinitive time was determined. T½ was calculated by means of a least-squares method from the inclination of a straight line connecting several points in a disappearing phase of the immunoreactivity concentration in plasma. In the case of a subcutaneous administration, C0 was not determined but the maximum concentration in plasma (Cmax; ng/mL) and the time reaching the maximum concentration in plasma (Tmax; min) were determined.
Changes in CNP immunoreactivity concentration in plasma of native CNP-22 and chimeric peptide (chimeric CNP) where a half-life-extension peptide was added to CNP were investigated.
The experiment was conducted in the same manner as in Example 1 that rats where polyethylene tube was previously inserted into thigh artery were used under an anesthetizing condition with Nembutal and male SD strain rats of 7 weeks age (purchased from Nippon Charles River) were used where one group comprised 3 rats. […] At that time, a rabbit polyclonal antibody (#2) recognizing a ring part of native CNP-22 was used as an antibody and ^125I-[Tyr^0] CNP was used as a labeling compound. Pharmacokinetic analysis was carried out by the same method as in Example 1.

The target in the next data set is T1, NEP (Rattus norvegicus, UniProt P07861).
T1 construct: male SD strain rats of 7 weeks age (Nippon Charles River; body weight: ca. 250 g) were used; from tissue; host or cells: whole animal: male SD rats (Nippon Charles River), in vivo
T1 sequence (P07861 1-750): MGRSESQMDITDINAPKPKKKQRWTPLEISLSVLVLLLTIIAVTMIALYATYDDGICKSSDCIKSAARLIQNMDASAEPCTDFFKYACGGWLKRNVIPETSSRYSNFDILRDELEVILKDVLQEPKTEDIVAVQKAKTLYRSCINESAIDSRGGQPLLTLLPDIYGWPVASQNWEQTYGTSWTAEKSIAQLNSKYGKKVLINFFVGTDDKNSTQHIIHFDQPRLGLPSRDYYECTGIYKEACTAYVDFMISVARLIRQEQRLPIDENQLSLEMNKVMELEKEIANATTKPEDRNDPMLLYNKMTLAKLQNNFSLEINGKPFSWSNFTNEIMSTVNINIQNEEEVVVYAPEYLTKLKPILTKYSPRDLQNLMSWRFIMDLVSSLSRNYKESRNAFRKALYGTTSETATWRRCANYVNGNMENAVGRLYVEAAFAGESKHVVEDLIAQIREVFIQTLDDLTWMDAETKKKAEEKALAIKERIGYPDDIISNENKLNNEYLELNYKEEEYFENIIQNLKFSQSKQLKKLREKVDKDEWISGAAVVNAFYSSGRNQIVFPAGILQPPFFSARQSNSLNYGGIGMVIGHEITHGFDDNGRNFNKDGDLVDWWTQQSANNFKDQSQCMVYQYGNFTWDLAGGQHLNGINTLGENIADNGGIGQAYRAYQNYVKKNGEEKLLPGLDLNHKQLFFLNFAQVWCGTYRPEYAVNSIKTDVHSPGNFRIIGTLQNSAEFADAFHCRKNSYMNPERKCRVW
Briefly: NEP resistance in vivo: influence of NEP inhibitor on pharmacokinetic parameters after intravenous administration. Particulars: for AUC(0-inf) / C0 / half-life: male, SD, rat, in vivo, iv, 0.02 mg/kg, intravenous 0.02 mg/kg, male rats, N = 3; for AUC(0-inf): read-out: AUC0→∞ (converted); for C0: read-out: C0; for half-life: read-out: T½. Here is the method:
Further, NEP resistance in vivo of the native CNP-22 and chimeric CNP (B) was evaluated using the effect by the joint use with an NEP inhibitor affecting on changes in CNP immunoreactivity concentration in plasma after the intravenous administration as an index. This test was also carried out using rats into which a polyethylene tube (PE-50, manufactured by Clay […].) was inserted into thigh artery for collection of blood and rats into which a polyethylene tube (PE-10, manufactured by Clay […].) was inserted into thigh vein for administration of an NEP inhibitor under an anesthetizing condition using Nembutal. As a test system, male SD strain rats of 7 weeks age (Nippon Charles River; body weight: ca. 250 g) were used for the experiment where one group comprised 3 rats. […] Time for the administration was from 10 minutes before the administration of the native CNP-22 or the chimeric CNP (B) to completion of blood collection which was 60 minutes after the administration. The native CNP-22 and the chimeric CNP (B) each was administered into the tail vein in a dose of 20 μg/kg and the blood before starting the administration of NEP inhibitor (-10 minutes), before the administration of CNP (0 minute) and until after 60 minutes from the administration was collected by a thigh artery cannula. After a stabilizer and an anticoagulant were added to the collected blood, it was centrifuged to give plasma and the immunoreactivity concentration in the plasma was measured by the above-mentioned competitive RIA. The pharmacokinetic analysis was carried out by the same method as in Example 1.

The mark [2] stands for this setting: rat, plasma, sc, subcutaneous, 0.1 mg/kg, male rats, N = 3, mean ± SD.
[3] abbreviates: rat, plasma, intravenous, 0.1 mg/kg, male rats, N = 3, mean ± SD.

The Cmax is the peak of the concentration-time curve. For orientation: Tmax means the time at which the peak concentration occurs. For `CC[C@H](C)[C@@H]1NC(=O)[C@H](CCCNC(=N)N)NC(=O)[C@H](CC(=O)O)NC(=O)[C@H](CC(C)C)NC(=O)[C@H](CCCCN)NC(=O)[C@H](CC(C)C)NC(=O)CNC(=O)[C@H](Cc2ccccc2)NC(=O)[C@@H](NC(=O)CNC(=O)[C@H](CCCCN)NC(=O)[C@H](CO)NC(=O)[C@H](CC(C)C)NC(=O)CN)CSSC[C@@H](C(=O)O)NC(=O)CNC(=O)[C@H](CC(C)C)NC(=O)CNC(=O)[C@H](CO)NC(=O)[C@H](CCSC)NC(=O)[C@H](CO)NC(=O)CNC1=O` [Native CNP-22], in data set [1] (setting [2]), the AUC(0-inf) is 17.7 ng·h/mL, the Cmax turned out to be 55.6 ± 4.5 ng/mL, the Tmax was 5 min and the half-life turned out to be 7.8 ± 0.9 min. In data set [1] (setting [3]), the AUC(0-inf) was 25.6 ng·h/mL and the half-life was determined as 2.93 ± 0.23 min. Besides, the C0 in data set [1] (rat, plasma, intravenous, 0.1 mg/kg, male rats, N = 3, mean ± SD, extrapolated value) is 1020 ± 273 ng/mL. For the same molecule, the “CNP immunoreactivity concentration in plasma” value in data set [1] (subcutaneous, after 60 minutes from the administration) is “almost disappeared”. Besides, at NEP (intravenous, rats), the “AUC with NEP inhibitor as compared with the case where the inhibitor was not used” value is recorded as “about 3.7 fold” and the “half-life with NEP inhibitor as compared with the case where the inhibitor was not used” value is reported as “about 5 fold”. For the same molecule, at NEP (NEP Inhibitor (+)), the AUC(0-inf) was 12.6 ng·h/mL, the C0 was found to be 131 ± 32 ng/mL and the half-life came to 9.94 ± 1.4 min. Moreover, at NEP (NEP Inhibitor (−)), the AUC(0-inf) is 3.37 ng·h/mL, the C0 came out at 145 ± 20 ng/mL and the half-life was found to be 1.96 ± 0.05 min.
